Counter-ions that a name gives are not always drawn. Like-named read-outs stand apart in the source and are kept apart here.
System: Acinetobacter baumannii ATCC 17978
Assay: Antimicrobial susceptibility testing: 90% growth inhibitory concentration (IC90) determination
Format: cell-based
Settings: 90% growth inhibitory concentration, Acinetobacter baumannii ATCC17978, Iso-Sensitest broth, OD 600 nm over 16h, read-out: ATCC17978 IC90
How it was run: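 Compounds serially twofold diluted (e.g. 50 to 0.097 μM final) in Iso-Sensitest broth, inoculated at ~5×10^(5) CFU/ml, incubated at 35±2° C. OD600 read every 20 minutes over 16h. IC90 taken as concentration inhibiting 90% of growth during logarithmic phase.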

[1] = Acinetobacter baumannii, ATCC17978, 16 h

Cc1cc(Nc2nccn3c(-c4ccc(OC(F)F)cc4)cnc23)ccc1C(=O)NC[C@@H](C)N [Example 268, N-[(2R)-2-aminopropyl]-4-[[3-[4-(difluoromethoxy)phenyl]im-idazo[1,2-a]pyrazin-8-yl]amino]-2-methylbenzamide;hydrochlo-ride]
IC90 [1]: 5.6 µM

Cc1cc(Nc2nccn3c(-c4ccc(OC(F)F)cc4)cnc23)ccc1C(=O)N[C@@H](C)CN [Example 269, N-[(2S)-1-aminopropan-2-yl]-4-[[3-[4-(difluoromethoxy)phenyl]im-idazo[1,2-a]pyrazin-8-yl]amino]-2-methylbenzamide;hydrochlo-ride]
IC90 [1]: 7.1 µM

Cc1cc(Nc2nccn3c(-c4ccc(OC(F)F)cc4)cnc23)ccc1C(=O)N[C@H](C)CN [Example 270, N-[(2R)-1-aminopropan-2-yl]-4-[[3-[4-(difluoromethoxy)phenyl]im-idazo[1,2-a]pyrazin-8-yl]amino]-2-methylbenzamide;hydrochlo-ride]
IC90 [1]: 7.7 µM

Cc1cc(Nc2nccn3c(-c4ccc(OC(F)F)cc4)cnc23)ccc1C(=O)NCCCC[C@H](N)C(=O)O [Example 271, (2S)-2-amino-6-[[4-[[3-[4-(difluoromethoxy)phenyl]im-idazo[1,2-a]pyrazin-8-yl]amino]-2-methylbenzoyl]amino]hexa-noic acid]
IC90 [1]: 9.3 µM

COc1ccc(-c2cnc3c(Nc4ccc(C(=O)NCCCCCN5CCNCC5)c(C)c4)nccn23)cc1F [Example 272, 4-[[3-(3-fluoro-4-methoxyphenyl)imidazo[1,2-a]pyrazin-8-yl]amino]-2-methyl-N-(5-piperazin-1-ylpentyl)benzamide;hydrochlo-ride]
IC90 [1]: 0.12 µM

COc1ccc(-c2cnc3c(Nc4ccc(C(=O)N(C)CCCCC(=O)N5CCNCC5)c(C)c4)nccn23)cc1F [Example 273, 4-[[3-(3-fluoro-4-methoxyphenyl)imidazo[1,2-a]pyrazin-8-yl]amino]-N,2-dimethyl-N-(5-oxo-5-piperazin-1-ylpentyl)benzamide]
IC90 [1]: 0.18 µM

COc1ccc(-c2cnc3c(Nc4ccc5c(c4)CCN(C)C5=O)nccn23)cc1F [Example 274, 6-[[3-(3-fluoro-4-methoxyphenyl)imidazo[1,2-a]pyrazin-8-yl]amino]-2-methyl-3,4-dihydroisoquinolin-1-one]
IC90 [1]: 0.24 µM

COc1ccc(-c2cnc3c(Nc4ccc(C(=O)N(C)CCCN5CCNCC5)c(C)c4)nccn23)cc1F [Example 275, 4-[[3-(3-fluoro-4-methoxyphenyl)imidazo[1,2-a]pyrazin-8-yl]amino]-N,2-dimethyl-N-(3-piperazin-1-ylpropyl)benzamide]
IC90 [1]: 0.35 µM

CCc1cc(Nc2nccn3c(-c4ccc(OC(F)F)c(F)c4F)cnc23)ccc1C(=O)NCCCN [Example 276, N-(3-aminopropyl)-4-[[3-[4-(difluoromethoxy)-2,3-difluorophenyl]imidazo[1,2-a]pyrazin-8-yl]amino]-2-ethylbenzamide;hydrochloride]
IC90 [1]: 0.48 µM

CCc1cc(Nc2nccn3c(-c4ccc(Cl)c(F)c4F)cnc23)ccc1C(=O)NCC1CCNC1 (centres unmarked) [Example 277, 4-[[3-(4-chloro-2,3-difluorophenyl)imidazo[1,2-a]pyrazin-8-yl]amino]-2-ethyl-N-(pyrrolidin-3-ylmethyl)benzamide;hydrochlo-ride]
IC90 [1]: 0.7 µM

Cc1cc(Nc2nccn3c(-c4ccc(OC(F)F)cc4)cnc23)ccc1C(=O)NCCN1C[C@@H](C)O[C@@H](C)C1 [Example 278, 4-[[3-[4-(difluoromethoxy)phenyl]im-idazo[1,2-a]pyrazin-8-yl]amino]-2-methyl-N-[2-[rac-(2R,6S)-2,6-dimethylmorpholin-4-yl]ethyl]benzamide]
IC90 [1]: 1.4 µM

Cc1cc(Nc2nccn3c(-c4ccc(OC(F)F)cc4)cnc23)ccc1C(=O)N(C)CC(=O)N1CCOCC1 [Example 279, 4-[[3-[4-(difluoromethoxy)phenyl]im-idazo[1,2-a]pyrazin-8-yl]amino]-N,2-dimethyl-N-(2-morpholin-4-yl-2-oxoethyl)benzamide]
IC90 [1]: 3.4 µM

CCc1cc(Nc2nccn3c(-c4ccc(OC)cc4F)cnc23)ccc1C(=O)NCCCN [Example 280, N-(3-aminopropyl)-2-ethyl-4-[[3-(2-fluoro-4-methoxyphenyl)imidazo[1,2-a]pyrazin-8-yl]amino]benzamide;hydrochlo-ride]
IC90 [1]: 0.88 µM

COc1ccc(-c2cnc3c(Nc4ccc(C(=O)NCCC5(O)CCNCC5)c(C)c4)nccn23)cc1F [Example 281, 4-[[3-(3-fluoro-4-methoxyphenyl)imidazo[1,2-a]pyrazin-8-yl]amino]-N-[2-(4-hydroxypiperidin-4-yl)ethyl]-2-methylbenzamide;2,2,2-trifluoroacetic acid]
IC90 [1]: 0.93 µM

CCc1cc(Nc2nccn3c(-c4ccc(Cl)c(F)c4F)cnc23)ccc1C(=O)N(C)CCCN [Example 282, N-(3-aminopropyl)-4-[[3-(4-chloro-2,3-difluorophenyl)imidazo[1,2-a]pyrazin-8-yl]amino]-2-ethyl-N-methylbenzamide; hydrochloride]
IC90: 1.4 µM

CCc1cc(Nc2nccn3c(-c4ccc(Cl)cc4F)cnc23)ccc1C(=O)NCCCN [Example 283, N-(3-aminopropyl)-4-[[3-(4-chloro-2-fluorophenyl)imidazo[1,2-a]pyrazin-8-yl]amino]-2-ethylbenzamide; hydrochloride]
IC90: 2 µM

Cc1cc(Nc2nccn3c(-c4ccc(OC(F)F)cc4)cnc23)ccc1C(=O)N(CCN1CCNCC1)C1CC1 [Example 284, N-cyclopropyl-4-[[3-[4-(difluoromethoxy)phenyl]im-idazo[1,2-a]pyrazin-8-yl]amino]-2-methyl-N-(2-piperazin-1-ylethyl)benzamide;hydrochlo-ride]
IC90 [1]: 2.1 µM

COc1ccc(-c2cnc3c(Nc4ccc(C(=O)NCC5(O)CCNCC5)c(C)c4)nccn23)cc1F [Example 285, 4-[[3-(3-fluoro-4-methoxyphenyl)imidazo[1,2-a]pyrazin-8-yl]amino]-N-[(4-hydroxypiperidin-4-yl)methyl]-2-methylbenzamide;2,2,2-trifluoroacetic acid]
IC90 [1]: 2.6 µM

COc1ccc(-c2cnc3c(Nc4ccc(C(=O)NCC5(O)CCNC5)c(C)c4)nccn23)cc1F (centres unmarked) [Example 286, 4-[[3-(3-fluoro-4-methoxyphenyl)imidazo[1,2-a]pyrazin-8-yl]amino]-N-[(3-hydroxypyrrolidin-3-yl)methyl]-2-methylbenzamide;2,2,2-trifluoroacetic acid]
IC90 [1]: 2.7 µM

CCc1cc(Nc2nccn3c(-c4ccc(OCC#CCN)c(F)c4F)cnc23)ccc1C(=O)NCCCN [Example 287, 4-[[3-[4-(4-aminobut-2-ynoxy)-2,3-difluorophenyl]imidazo[1,2-a]pyrazin-8-yl]amino]-N-(3-aminopropyl)-2-ethylbenzamide]
IC90 [1]: 2.9 µM

COc1ccc(-c2cnc3c(Nc4ccc(C(=O)NC[C@@H](O)[C@@H](O)[C@H](O)[C@H](O)CO)c(C)c4)nccn23)cc1F [Example 288, 4-[[3-(3-fluoro-4-methoxyphenyl)imidazo[1,2-a]pyrazin-8-yl]amino]-2-methyl-N-[(2R,3R,4R,5R)-2,3,4,5,6-pentahydroxyhexyl]benzamide]
IC90 [1]: 3 µM

CCc1cc(Nc2nccn3c(-c4ccc(O)c(F)c4F)cnc23)ccc1C(=O)NCCCN [Example 289, N-(3-aminopropyl)-4-[[3-(2,3-difluoro-4-hydroxyphenyl)imidazo[1,2-a]pyrazin-8-yl]amino]-2-ethylbenzamide;hydrochloride]
IC90 [1]: 4.6 µM

CCc1cc(Nc2nccn3c(-c4ccc(OC)c(F)c4F)cnc23)ccc1C(=O)NCCCn1ccnc1 [Example 290, 4-[[3-(2,3-difluoro-4-methoxyphenyl)imidazo[1,2-a]pyrazin-8-yl]amino]-2-ethyl-N-(3-imidazol-1-ylpropyl)benzamide]
IC90 [1]: 0.05 µM

CCc1cc(Nc2nccn3c(-c4ccc(OC)c(F)c4F)cnc23)ccc1C(=O)NCC1COC1 [Example 291, 4-[[3-(2,3-difluoro-4-methoxyphenyl)imidazo[1,2-a]pyrazin-8-yl]amino]-2-ethyl-N-(oxetan-3-ylmethyl)benzamide]
IC90 [1]: 0.09 µM

COc1ccc(-c2cnc3c(Nc4ccc(C(=O)NCC5CCN(C(=N)N)CC5)c(C)c4)nccn23)c(F)c1F [Example 292, N-[(1-carbamimidoylpiperidin-4-yl)methyl]-4-[[3-(2,3-difluoro-4-methoxyphenyl)imidazo[1,2-a]pyrazin-8-yl]amino]-2-methylbenzamide]
IC90 [1]: 0.11 µM

CCc1cc(Nc2nccn3c(-c4ccc(OC(F)F)c(F)c4F)cnc23)ccc1C(=O)NCCCO [Example 293, 4-[[3-[4-(difluoromethoxy)-2,3-difluorophenyl]imidazo[1,2-a]pyrazin-8-yl]amino]-2-ethyl-N-(3-hydroxypropyl)benzamide]
IC90 [1]: 0.12 µM

CCc1cc(Nc2nccn3c(-c4ccc(OC(F)F)c(F)c4F)cnc23)ccc1C(=O)NCCNC(=O)CN(C)C [Example 294, 4-[[3-[4-(difluoromethoxy)-2,3-difluorophenyl]imidazo[1,2-a]pyrazin-8-yl]amino]-N-[2-[[2-(dimethylamino)acetyl]amino]ethyl]-2-ethylbenzamide]
IC90 [1]: 0.14 µM

CCc1cc(Nc2nccn3c(-c4ccc(OC(F)F)c(F)c4F)cnc23)ccc1C(=O)NCCc1nnc(C)[nH]1 [Example 295, 4-[[3-[4-(difluoromethoxy)-2,3-difluorophenyl]imidazo[1,2-a]pyrazin-8-yl]amino]-2-ethyl-N-[2-(5-methyl-4H-1,2,4-triazol-3-yl)ethyl]benzamide]
IC90 [1]: 0.14 µM

COc1ccc(-c2cnc3c(Nc4ccc(C(=O)NCC5CCN(C(=N)N)CC5)c(Cl)c4)nccn23)cc1F [Example 296, N-[(1-carbamimidoylpiperidin-4-yl)methyl]-2-chloro-4-[[3-(3-fluoro-4-methoxyphenyl)imidazo[1,2-a]pyrazin-8-yl]amino]benzamide]
IC90 [1]: 0.15 µM

— patent US20230012368A1 (Hoffmann-La Roche Inc., priority 2018, published 2023)
